Laboratory results published in US20140051679A1, “KINASE INHIBITORS AND METHOD OF TREATING CANCER WITH SAME” (UNIVERISTY HEALTH NETWORKS, priority 2011, published 2014).

Legend:
[1] = test system: MDA-MB-231 breast cancer cells; experiment: Cell growth inhibition, Sulforhodamine B assay, MDA-MB-231; assay type: cell-based; settings: Homo sapiens, 120 h, 5 days culture, SRB assay, read-out: Cell Line GI50 Range MDA-MB-231
[2] = test system: Ovarian TICs, 2393A ovarian; experiment: Ovarian tumor-initiating cell growth inhibition (Alamar Blue); assay type: cell-based; settings: 144 h, 6 days, read-out: GI50 range 2393A ovarian
[3] = test system: PA-1 ovarian cancer cells; experiment: Cell growth inhibition, Sulforhodamine B assay, PA-1; assay type: cell-based; settings: 120 h, 5 days culture, SRB assay, read-out: Cell Line GI50 Range PA-1
human PLK4 = molecular target: T1, human PLK4 (Homo sapiens, UniProt O00444); experiment: PLK4 inhibition assay (indirect ELISA); assay type: biochemical; settings: GST-PLK4 4 nM, 15 μM ATP; read-out: IC50 Ranges PLK4
T1 construct: amino terminal GST fusion of residues 1-391 of human PLK4; made in house; host or cells: E. coli
T1 sequence (O00444 1-391): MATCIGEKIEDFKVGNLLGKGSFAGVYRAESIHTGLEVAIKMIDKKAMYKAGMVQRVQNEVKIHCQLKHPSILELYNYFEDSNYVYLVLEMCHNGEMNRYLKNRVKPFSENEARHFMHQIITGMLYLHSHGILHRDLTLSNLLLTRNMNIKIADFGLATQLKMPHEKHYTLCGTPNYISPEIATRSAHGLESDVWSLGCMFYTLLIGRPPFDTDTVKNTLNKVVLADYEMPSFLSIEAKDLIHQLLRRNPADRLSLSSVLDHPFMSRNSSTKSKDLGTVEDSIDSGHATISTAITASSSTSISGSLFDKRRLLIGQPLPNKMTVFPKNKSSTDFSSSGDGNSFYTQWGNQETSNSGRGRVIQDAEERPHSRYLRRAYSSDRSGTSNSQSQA
Outline: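 Dephosphorylated GST-tagged human PLK4 (residues 1-391, E. coli), 4 nM, preincubated 15 min with compound, then reacted 30 min with 15 μM ATP on MBP-coated plates (50 mM HEPES pH 7.5, 10 mM MgCl2, 0.01% Brij 35). Phospho-MBP detected by antibody ELISA at 450 nm. Tested at 10 μM or 10-point titrations; IC50 from 4-parameter logistic fit.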

[4] = test system: MDA-MB-468 breast cancer cells; experiment: Cell growth inhibition, Sulforhodamine B assay, MDA-MB-468; assay type: cell-based; settings: Homo sapiens, 120 h, 5 days culture, SRB assay, read-out: Cell Line GI50 Range MDA-MB-468
[5] = test system: HCT116 colon cancer cells; experiment: Cell growth inhibition, Sulforhodamine B assay, HCT116; assay type: cell-based; settings: Homo sapiens, HCT-116, 120 h, 5 days culture, SRB assay, read-out: Cell Line GI50 Range HCT116
[6] = test system: OVCAR-3 ovarian cancer cells; experiment: Cell growth inhibition, Sulforhodamine B assay, OVCAR-3; assay type: cell-based; settings: Homo sapiens, 120 h, 5 days culture, SRB assay, read-out: Cell Line GI50 Range OVCAR-3
human TTK = molecular target: T2, human TTK (Homo sapiens, UniProt P33981); experiment: TTK inhibition assay (indirect ELISA); assay type: biochemical; settings: GST-TTK 0.68 nM, 16 μM ATP; read-out: IC50 Ranges TTK
T2 construct: amino terminal GST fusion of full length human TTK; purchased Invitrogen
T2 sequence (P33981 1-857): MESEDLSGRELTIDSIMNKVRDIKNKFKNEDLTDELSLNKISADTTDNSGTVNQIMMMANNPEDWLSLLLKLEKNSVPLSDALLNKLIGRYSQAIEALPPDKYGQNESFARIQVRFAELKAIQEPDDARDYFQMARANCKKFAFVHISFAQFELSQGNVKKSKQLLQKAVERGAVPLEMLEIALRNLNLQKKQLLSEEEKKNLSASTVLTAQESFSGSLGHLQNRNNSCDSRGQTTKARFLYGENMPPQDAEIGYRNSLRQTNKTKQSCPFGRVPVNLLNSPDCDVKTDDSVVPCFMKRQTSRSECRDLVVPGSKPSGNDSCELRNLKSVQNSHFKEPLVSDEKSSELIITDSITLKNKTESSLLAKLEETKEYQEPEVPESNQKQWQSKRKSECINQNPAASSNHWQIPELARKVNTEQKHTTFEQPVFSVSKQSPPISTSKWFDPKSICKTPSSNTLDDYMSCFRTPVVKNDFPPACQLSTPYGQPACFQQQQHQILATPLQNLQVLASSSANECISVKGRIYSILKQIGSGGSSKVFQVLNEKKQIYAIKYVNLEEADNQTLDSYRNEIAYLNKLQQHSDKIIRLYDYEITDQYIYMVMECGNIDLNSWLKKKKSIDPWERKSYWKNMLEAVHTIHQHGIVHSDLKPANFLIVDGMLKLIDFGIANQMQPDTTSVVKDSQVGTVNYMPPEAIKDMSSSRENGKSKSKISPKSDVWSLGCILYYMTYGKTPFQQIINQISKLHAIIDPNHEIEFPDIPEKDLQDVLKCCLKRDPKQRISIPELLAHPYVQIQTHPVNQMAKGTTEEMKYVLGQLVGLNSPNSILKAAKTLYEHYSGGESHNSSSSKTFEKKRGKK

[7] = test system: Colon tumor initiating cells (TICs), 12 colon; experiment: Colon tumor-initiating cell growth inhibition (Alamar Blue); assay type: cell-based; settings: 216 h, 9 days, read-out: GI50 range 12 colon
HT29 colon cancer cells = experiment: Cell growth inhibition, Sulforhodamine B assay, HT29; assay type: cell-based; settings: Homo sapiens, HT-29, 120 h, 5 days culture, SRB assay, read-out: Cell Line GI50 Range HT29
Aurora B = molecular target: T3, Aurora B (Homo sapiens, UniProt Q96GD4); experiment: Aurora B inhibition assay (Z-Lyte); assay type: biochemical; settings: 28 nM Aurora B, 128 μM ATP; read-out: IC50 Ranges Aurora B
T3 construct: purchased Invitrogen PV3970
Description: Aurora B inhibition was determined using the Z-Lyte assay kit from Invitrogen. The assay was performed using the recommended manufacturer's instructions with 128 μM ATP and 28 nM Aurora B (Invitrogen cat #PV3970). The % inhibition values were determined according to the manufacturer's directions and IC50 values were obtained using a non-linear 4 point logistic curve fit (XLfit4, IDBS)

T3 sequence (Q96GD4 whole entry): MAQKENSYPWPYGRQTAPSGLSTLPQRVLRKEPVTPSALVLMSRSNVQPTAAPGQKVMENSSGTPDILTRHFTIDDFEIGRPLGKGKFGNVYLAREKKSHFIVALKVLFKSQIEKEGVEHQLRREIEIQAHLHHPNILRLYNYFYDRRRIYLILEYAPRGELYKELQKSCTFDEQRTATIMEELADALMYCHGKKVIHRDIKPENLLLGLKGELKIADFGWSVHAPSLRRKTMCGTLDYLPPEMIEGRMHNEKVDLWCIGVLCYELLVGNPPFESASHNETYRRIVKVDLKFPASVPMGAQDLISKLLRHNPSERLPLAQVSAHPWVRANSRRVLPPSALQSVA

Row | Structure (SMILES) | GI50 [1] | GI50 [2] | GI50 [3] | IC50 (human PLK4) | GI50 [4] | GI50 [5] | GI50 [6] | IC50 (human TTK) | GI50 [7] | GI50 (HT29 colon cancer cells) | IC50 (Aurora B)
1 | CN1CCC(Oc2ccc(-c3n[nH]c4ccc(NC(=O)C(c5ccccc5)C5CC5)cc34)cc2)CC1 (centres unmarked) [Example A138, 2-cyclopropyl-N-(3-(4-((1-methylpiperidin-4-yl)oxy)phenyl)-1H-indazol-5-yl)-2-phenylacetamide] | ≤ 5 µM | ≤ 5 µM | ≤ 5 µM | ≤ 5 µM | ≤ 5 µM | ≤ 5 µM | ≤ 5 µM | ≤ 5 µM | ≤ 5 µM | ≤ 5 µM | ≤ 5 µM
2 | CC[C@@H](NC(=O)c1ccc2[nH]nc(-c3ccc(OC4CCN(CCOC)CC4)cc3)c2c1)c1ccccc1Cl [Example A128, (R)—N-(1-(2-chlorophenyl)propyl)-3-(4-((1-(2-methoxyethyl)piperidin-4-yl)oxy)phenyl)-1H-indazole-5-carboxamide] | ≤ 5 µM | ≤ 5 µM | ≤ 5 µM | ≤ 5 µM | ≤ 5 µM | ≤ 5 µM | ≤ 5 µM | ≤ 5 µM | ≤ 5 µM | ≤ 5 µM | ≤ 5 µM
3 | Cc1ccccc1C(C(=O)Nc1ccc2[nH]nc(-c3ccc(OC4CCN(C)CC4)cc3)c2c1)N1CCCC1 (centres unmarked) [Example A133, N-(3-(4-((1-methylpiperidin-4-yl)oxy)phenyl)-1H-indazol-5-yl)-2-(pyrrolidin-1-yl)-2-(o-tolyl)acetamide] | ≤ 5 µM | ≤ 5 µM | ≤ 5 µM | ≤ 5 µM | ≤ 5 µM | ≤ 5 µM | ≤ 5 µM | ≤ 5 µM | ≤ 5 µM | ≤ 5 µM | ≤ 5 µM
4 | CN1CCC(Oc2ccc(-c3n[nH]c4ccc(C(=O)NC(c5ccccc5)C5CCOCC5)cc34)cc2)CC1 (centres unmarked) [Example A177, 3-(4-((1-methylpiperidin-4-yl)oxy)phenyl)-N-(phenyl(tetrahydro-2H-pyran-4-yl)methyl)-1H-indazole-5-carboxamide] | ≤ 5 µM | ≤ 5 µM | ≤ 5 µM | ≤ 5 µM | ≤ 5 µM | ≤ 5 µM | ≤ 5 µM | ≤ 5 µM | ≤ 5 µM | ≤ 5 µM | ≤ 5 µM

More lines, now with the values ahead:

Row | GI50 [1] | GI50 [2] | GI50 [3] | IC50 (human PLK4) | GI50 [4] | GI50 [5] | GI50 [6] | IC50 (human TTK) | GI50 [7] | GI50 (HT29 colon cancer cells) | IC50 (Aurora B) | Structure (SMILES)
5 | ≤ 5 µM | ≤ 5 µM | ≤ 5 µM | ≤ 5 µM | ≤ 5 µM | ≤ 5 µM | ≤ 5 µM | ≤ 5 µM | ≤ 5 µM | ≤ 5 µM | ≤ 5 µM | COCCN1CCC(Oc2ccc(-c3n[nH]c4ccc(NC(=O)C(c5ccsc5)N5CCCC5)cc34)cc2)CC1 (centres unmarked) [Example A175, N-(3-(4-((1-(2-methoxyethyl)piperidin-4-yl)oxy)phenyl)-1H-indazol-5-yl)-2-(pyrrolidin-1-yl)-2-(thiophen-3-yl)acetamide]
6 | ≤ 5 µM | ≤ 5 µM | ≤ 5 µM | ≤ 5 µM | ≤ 5 µM | ≤ 5 µM | ≤ 5 µM | ≤ 5 µM | ≤ 5 µM | ≤ 5 µM | ≤ 5 µM | CN1CCC(Oc2ccc(-c3n[nH]c4ccc(C(=O)NC(c5ccccc5Cl)C5CC5)cc34)cc2)CC1 (centres unmarked) [Example A150, N-((2-chlorophenyl)(cyclopropyl)methyl)-3-(4-((1-methylpiperidin-4-yl)oxy)phenyl)-1H-indazole-5-carboxamide]
7 | ≤ 5 µM | ≤ 5 µM | ≤ 5 µM | ≤ 5 µM | ≤ 5 µM | ≤ 5 µM | ≤ 5 µM | ≤ 5 µM | ≤ 5 µM | ≤ 5 µM | ≤ 5 µM | COCCN1CCC(Oc2ccc(-c3n[nH]c4ccc(C(=O)N[C@H](c5ccsc5)C5CC5)cc34)cc2)CC1 [Example A154]
